Assay results reported in paper PMC12334614, “Chidamide and cytarabine synergistically treat acute myeloid leukemia: inhibiting ribosome biogenesis via the MYC-RRP9 pathway” (Cell Death & Disease, 2025).

Columns and labels:
c-MYC = molecular target: T1, c-MYC (Homo sapiens, UniProt P01106); experiment: SPR (Biacore X100, steady-state affinity); assay type: binding
T1 construct: recombinant c-MYC protein (RayBiotech) immobilized on CM5 chip

MYC = molecular target: T2, MYC (Homo sapiens, UniProt P01106, A416G/K413A/P406A/V409A); experiment: SPR (Biacore X100, steady-state affinity); assay type: binding
T2 construct: recombinant MYC protein carrying the predicted substitutions (MedChemExpress HY-P7S1056)
T2 sequence (P01106 16-454 P406A/V409A/K413A/A416G): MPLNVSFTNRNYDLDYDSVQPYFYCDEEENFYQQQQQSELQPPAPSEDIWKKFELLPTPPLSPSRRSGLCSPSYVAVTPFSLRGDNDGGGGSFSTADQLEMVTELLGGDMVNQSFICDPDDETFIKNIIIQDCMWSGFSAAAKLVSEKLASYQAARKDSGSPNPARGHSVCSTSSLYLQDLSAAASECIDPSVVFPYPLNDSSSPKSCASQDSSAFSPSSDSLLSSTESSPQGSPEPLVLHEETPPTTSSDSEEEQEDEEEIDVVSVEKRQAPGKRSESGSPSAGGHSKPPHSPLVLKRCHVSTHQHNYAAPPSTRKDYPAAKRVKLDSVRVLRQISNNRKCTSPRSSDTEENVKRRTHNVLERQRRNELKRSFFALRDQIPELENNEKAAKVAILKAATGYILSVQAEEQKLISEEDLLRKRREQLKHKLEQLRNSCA

T1 sequence (P01106 16-454): as the sequence (P01106 16-454 P406A/V409A/K413A/A416G) above, with A391P, A394V, A398K, G401A counted along it

SMILES: Nc1cc(F)ccc1NC(=O)c1ccc(CNC(=O)/C=C/c2cccnc2)cc1 [chidamide]
- Kd (c-MYC): 795 nM
- Kd (MYC): 3120 nM
